Columns and labels:
[1] = system: Raw 264.7 (ATCC TIB71) cells; assay: Evaluation of cell survival rate of macrophages (MTT); assay type: cell-based, mouse; details: Raw 264.7, 10 μM, 24 hours
Procedure: Raw 264.7 (ATCC TIB71) cells, the mouse derived macrophages', were inoculated in a 96-well plate containing DMEM (Dulbecco's modified Eagle medium; Welgene, Korea) supplemented with 10% FBS (Fetal Bovine Serum), 2 mM glutamine, penicillin (100 unit/ml), and streptomycin (100 μg/ml) at the density of 1×10^4 cells/well. The cells were cultured in 5% CO2 at 37° C. for 4 hours to attach the cells onto the plate. Next, the cells were treated with each sample at different concentrations, followed by further culture for 24 hours. To investigate the cell survival rate, 5 mg/ml of MTT (3-(4,5-dimethylthiazol-2-yl)-2,5-diphenyltetrazoliumbromide, Amresco, OH, USA) was distributed thereto (10 μl/well), followed by culture for 4 hours. Then, the supernatant was eliminated. Formazan reduced from MTT by mitochondria was dissolved in 100 μl of DMSO and then OD570 was measured. 0.2% DMSO was used for the negative control.

[2] = system: Nitrogen Oxide (NO) generation; assay: Inhibition of nitrogen oxide (NO) generation in LPS-treated Raw 264.7 cells (Griess); assay type: cell-based, mouse; details: Raw 264.7, LPS 500 ng/ml, 24 hours
Procedure: Raw 264.7 (ATCC TIB71) cells were inoculated in a 96-well plate containing the same medium as used in Experimental Example 1 at the density of 1×10^5 cells/well. The cells were cultured in 5% CO2 at 37° C. for 4 hours to attach the cells onto the plate. The cells were treated with each sample at different concentrations, followed by further culture for 1 hour. […] were treated thereto at the final concentration of 500 ng/ml, followed by further culture for 24 hours. 100 μl of the supernatant was taken and transferred in a new plate, which was mixed with Griess reagent (a mixture of 1% sulfanilamide, 0.1% N-[1-naphthyl]-ethylenediamine dihydrochloride, and 5% phosphoric acid), followed by reaction for 10 minutes. Then, OD540 was measured. NO generation was quantified by using the sodium nitrite standard curve prepared from […] dissolved in the same medium at different concentrations. Considering the NO generation of the inflammation induced macrophages as 100%, the NO generation inhibition rate was calculated and presented in Table 7.

[3] = system: interleukin-6 (IL-6) generation; assay: Inhibition of interleukin-6 (IL-6) generation in LPS-treated Raw 264.7 cells (ELISA); assay type: cell-based, mouse; details: Raw 264.7, LPS treated; read-out: Grades of IC50 on IL-6 generation
Procedure: Raw 264.7 cells were distributed by the same manner as described in Experimental Example <2-1>, and IL-6 included in the supernatant treated with each sample at different concentrations was measured by enzyme-linked immunosorbent assay (IL-6 ELISA kit, BD Bioscience, San Diego, Calif.).
Particularly, 10-fold diluted supernatant was distributed in a 96-well plate on which IL-6 antibody was attached, followed by adhesion for 2 hours. The supernatant remaining after the adhesion was washed with a washing buffer. The detection antibody and HRP were adhered on the washed plate for 1 hour. The remaining antibody was washed. Color development was induced by using TMB substrate. The reaction was terminated with sulfuric acid solution. Then, OD450 was measured. IL-6 in the supernatant was quantified by using the standard curve made with the standard IL-6 included in the kit. IL-6 suppression rate was calculated by measuring the same concentration that could inhibit IL-6 generation up to 50% in the LPS treated group and the results are shown in Table 8.

[4] = system: rheumatoid arthritis animal model; details: DBA/1 CIA mice, 30 mg/kg oral, FIGS. 11 and 12
Procedure: (§1) Bovine type II collagen (100 μg/mouse, Hondrax, Seattle, USA) and complete Freund's adjuvant (Chondrex, Seattle, USA) were intradermally injected in the tail of […]. On day 21, 100 μg of bovine type II collagen was mixed with incomplete Freund's adjuvant (IFA), which was injected in the tail of each mouse once again to induce arthritis.
(§2) The compound of Example 25 of the invention was dissolved in a solvent (10% DMAC+10% Tween 80 in PBS).
(§3) Administration pathway: Oral administration Group (6 per group) • Vehicle control group (CIA group) • Dexamethasone (0.3 mg/kg)—positive control group • Example 25 compound group (30 mg/kg)

[5] = system: TNF-alpha; details: DBA/1 CIA mice, 30 mg/kg oral, FIG. 13
Procedure: as §1, §2, §3
(§4) ELISA was performed with the serum and foot to investigate whether or not the compound of the invention could suppress the generation of TNF-alpha and interleukin-6, the inflammatory cytokines known as the promoter of inflammation which is the common symptom of acute and chronic arthritis.

[6] = system: interleukin-6; details: DBA/1 CIA mice, 30 mg/kg oral, FIG. 14
Procedure: as §1, §2, §3, §4

SMILES: COc1cc(CCCO)cc(CCc2cccc(C)c2)c1O [Example 15, 4-(3-hydroxypropyl)-2-methoxy-6-(3-methylpenethyl)phenol]
- Grades of cell survival rate (%, in 10 μM) [1]: A (A: 90<A≤100)
- Grades of NO generation inhibition rate (%) [2]: A (A: 35<A≤100)
- IC50 [3]: 20 to 30 µM
- edema in the foot induced by collagen (clinical score) [4]: suppressed edema in the foot induced by collagen up to the level of the positive control
- generation of TNF-alpha induced by collagen [5]: inhibited
- generation of interleukin-6 induced by collagen [6]: inhibited

From patent publication US10053443B2, “2-phenylbenzofuran derivatives, method for preparing the same and use of the same for treating inflammatory disease” (KOREA RESEARCH INSTITUTE OF BIOSCIENCE AND BIOTECHNOLOGY, priority 2014, dated 2018)
